Results reported in patent US20030118577A1, “Use of analogues of superoxide dismutase for treating hepatocellular insufficiencies” (priority 2000, published 2003).

System: hepatocellular insufficiency induced by chronic intoxication with DMNA
Test: Chronic intoxication with DMNA, histological examination
Type: in vivo, mice
Method: The inventors also investigated the effects of MnSOD mimetics on hepatocellular insufficiency of toxic origin which can be induced in particular by alcohol, using an experimental model of intoxication with dimethylnitrosamine (DMNA) administered at the dose of 10 mg/kg in mice. This model is similar to intoxication with alcohol because the lesions induced by DMNA and alcohol are identical.
Intraperitoneal administration of 10 mg/kg/day of DMNA three times per week induces, in dogs and rodents, centrolobular and periportal lesions comprising fibrosis at the 4th week, and cirrhosis at the 13th week [RISTELLI et al., J. Biochem., 158, 361-367, (1976); MADDEN et al., Surgery, 68, 260-267, (1970)].

O=C(O)c1ccc(-c2c3nc(c(-c4ccc(C(=O)O)cc4)c4ccc([n-]4)c(-c4ccc(C(=O)O)cc4)c4nc(c(-c5ccc(C(=O)O)cc5)c5ccc2[n-]5)C=C4)C=C3)cc1.[Mn+3] [MnTBAP, Mn(III) tetrakis(5,10,15,20-benzoic acid)porphyrin]
appearance of hepatic lesions on histological sections (DMNA 10 mg/kg in mice, different intoxication times): delays the appearance of hepatic lesions
constitution of fibrosis on histological examination (DMNA 10 mg/kg/day ip three times per week, MnTBAP 10 mg/kg ip 24 hours after each DMNA): prevents the constitution of objectively viable fibrosis
